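Following 48 hours of exposure in 96-well plates, responses at five concentrations were used to interpolate endpoints linearly. The concentration for 50% growth inhibition is given as GI50.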 Calls of active or inactive are those of the source. Cut-off read from the data, not from the text of the source: active = GI50 up to about 1.1 µM and inactive = higher.
Legend:
Assay in all cases: DTP human tumour cell line panel, 48 h
786-0 = system: 786-0
A498 = system: A498
A549 = system: A549
ACHN = system: ACHN
BT-549 = system: BT-549
CAKI-1 = system: CAKI-1
CCRF-CEM = system: CCRF-CEM
COLO 205 = system: COLO 205
EKVX = system: EKVX
HCT-116 = system: HCT-116
HCT-15 = system: HCT-15
HL-60 = system: HL-60
HOP-62 = system: HOP-62
HOP-92 = system: HOP-92
HT-29 = system: HT-29
Hs-578T = system: Hs-578T
IGROV-1 = system: IGROV-1
K562 = system: K562
KM12 = system: KM12
LOX IMVI = system: LOX IMVI
M14 = system: M14
MCF7 = system: MCF7
MDA-MB-231 = system: MDA-MB-231
MDA-MB-435 = system: MDA-MB-435
MDA-N = system: MDA-N
MOLT-4 = system: MOLT-4
Malme-3M = system: Malme-3M
NCI-H226 = system: NCI-H226
NCI-H23 = system: NCI-H23
NCI-H460 = system: NCI-H460
NCI-H522 = system: NCI-H522
NCI/ADR-RES = system: NCI/ADR-RES
OVCAR-3 = system: OVCAR-3
OVCAR-4 = system: OVCAR-4
OVCAR-5 = system: OVCAR-5
OVCAR-8 = system: OVCAR-8
PC-3 = system: PC-3
RPMI-8226 = system: RPMI-8226
RXF 393 = system: RXF 393
SF-268 = system: SF-268
SF-295 = system: SF-295
SF-539 = system: SF-539
SK-MEL-2 = system: SK-MEL-2
SK-MEL-5 = system: SK-MEL-5
SK-OV-3 = system: SK-OV-3
SNB-19 = system: SNB-19
SNB-75 = system: SNB-75
SR = system: SR
SW-620 = system: SW-620
T47D = system: T47D
TK-10 = system: TK-10
U-251 = system: U-251
UACC-257 = system: UACC-257
UACC-62 = system: UACC-62
UO-31 = system: UO-31
DU-145 = system: DU-145
HCC 2998 = system: HCC 2998
SK-MEL-28 = system: SK-MEL-28
SN12C = system: SN12C

Measured: GI50

CCCCCCCCCCCCOCCOCCOCCOCCOCCOCC(=O)NC(Cc1ccccc1)C(=O)Oc1ccc([N+](=O)[O-])cc1 (stereo not given)
37 µM: HCT-15
inactive: 786-0 34.9 µM | A498 39.6 µM | A549 43 µM | ACHN 27.2 µM | BT-549 25.5 µM | CAKI-1 > 100 µM | CCRF-CEM 31.7 µM | COLO 205 15.8 µM | EKVX 61.2 µM | HCT-116 31.6 µM | HL-60 21.9 µM | HOP-62 40.9 µM | HOP-92 26.7 µM | HT-29 33.4 µM | Hs-578T 41.2 µM | IGROV-1 44.3 µM | K562 41.7 µM | KM12 40.1 µM | LOX IMVI 29.8 µM | M14 31.5 µM | MCF7 38.1 µM | MDA-MB-231 60.3 µM | MDA-MB-435 30.6 µM | MDA-N 27.7 µM | MOLT-4 23.2 µM | Malme-3M 29.6 µM | NCI-H226 59 µM | NCI-H23 32.3 µM | NCI-H460 30.5 µM | NCI-H522 29.9 µM | NCI/ADR-RES 37.5 µM | OVCAR-3 22.9 µM | OVCAR-4 40.9 µM | OVCAR-5 > 100 µM | OVCAR-8 44.5 µM | PC-3 31 µM | RPMI-8226 23.2 µM | RXF 393 31.8 µM | SF-268 50.9 µM | SF-295 39.1 µM | SF-539 36.4 µM | SK-MEL-2 23.8 µM | SK-MEL-5 31.8 µM | SK-OV-3 64.9 µM | SNB-19 47.3 µM | SNB-75 27 µM | SR 23.3 µM | SW-620 36.2 µM | T47D 40 µM | TK-10 38.3 µM | U-251 34.2 µM | UACC-257 29.9 µM | UACC-62 21.8 µM | UO-31 26 µM

CCC1OC(=O)CC(O)C(C)C(OC2OC(C)C(O)C(N(C)C)C2O)C(CC=O)CC(C)C(=O)/C=C/C2(C)OC2C1C (stereo not given)
inactive: 786-0 24.1 µM | A498 36.9 µM | A549 33.8 µM | ACHN 25.8 µM | BT-549 37.3 µM | CAKI-1 23.1 µM | CCRF-CEM 17.2 µM | COLO 205 19.6 µM | DU-145 20.7 µM | EKVX 40.1 µM | HCC 2998 15.9 µM | HCT-116 17.9 µM | HL-60 23.6 µM | HOP-62 33.4 µM | HT-29 20.2 µM | Hs-578T 27.1 µM | IGROV-1 23.1 µM | K562 12 µM | KM12 15.3 µM | LOX IMVI 16.8 µM | M14 18.6 µM | MCF7 21.5 µM | MDA-MB-231 24 µM | MDA-MB-435 27.7 µM | MDA-N 24.4 µM | MOLT-4 14.1 µM | Malme-3M 11.6 µM | NCI-H226 > 100 µM | NCI-H23 26.4 µM | NCI-H460 32.4 µM | NCI-H522 18.5 µM | OVCAR-3 23.3 µM | OVCAR-4 55.1 µM | OVCAR-5 47.3 µM | OVCAR-8 3.19 µM | PC-3 47.9 µM | RPMI-8226 11.1 µM | SF-268 24.9 µM | SF-295 67.9 µM | SF-539 25.2 µM | SK-MEL-28 54.6 µM | SK-MEL-2 48.3 µM | SK-MEL-5 7.03 µM | SK-OV-3 58.7 µM | SN12C 15.1 µM | SNB-19 44.4 µM | SNB-75 23.5 µM | SR 13.5 µM | SW-620 20 µM | T47D 17.2 µM | TK-10 34.2 µM | U-251 30.2 µM | UACC-257 17.3 µM | UACC-62 19.8 µM
32.1 µM: HCT-15
